In patent US20250011307A1, “CRYSTALLINE FORMS OF BIARYL YAP/TAZ-TEAD PROTEIN-PROTEIN INTERACTION INHIBITORS” (Novartis AG, priority 2021, published 2025):
Counter-ions that a name gives are not always drawn.

What was measured:
Format in all cases: physicochemical
[1] = Xenon light stress test of bulk (HPLC degradation products, color, XRPD); design: key to CL color: A: No change; B: Slight discoloration; C: Medium discoloration; D: Strong discoloration; details: Compound B forms, Xenon light (1200 kLuxh, 25° C.)
Experimental: X-ray powder diffraction (XRPD) patterns were obtained using a Bruker Advance D8 in reflection geometry. Powders were analyzed using a zero background Si flat sample holder. The radiation used was Cu Kα (A=1.5418 Å). Patterns were measured between 2° and 40° 2theta. • Sample amount: 5-10 mg • Sample holder: zero background Si flat sample holder
X-ray powder diffraction (XRPD) patterns were obtained using a Bruker Advance D8 in reflection geometry. Powders were analyzed using a zero background Si flat sample holder. The radiation was Cu Kα (λ=1.5418 Å). Patterns were measured between 2° and 40° 2theta. • Sample amount: 5-10 mg • Sample holder: zero background Si flat sample holder

[2] = Excipient compatibility stress test (HPLC degradation products, color); design: key to CL color: A: No change; B: Slight discoloration; C: Medium discoloration; D: Strong discoloration; details: Compound B forms
[3] = Solubility after equilibration at 25° C. for 24 h, with final pH and XRPD of solid residues; details: Compound B forms
[4] = Solid state bulk stability stress test (HPLC degradation products, color, XRPD); design: key to CL color: A: No change; B: Slight discoloration; C: Medium discoloration; D: Strong discoloration; details: Compound B forms
[5] = Hygroscopicity (loss on drying by TGA and XRPD, as is and after storage at 92% / 80% RH); details: Compound B forms
[6] = 2 weeks 50° C./75% RH, 1% in HGC powder
[7] = 2 weeks 50° C./75% RH, 1% in HPMC powder
[8] = 2 weeks 50° C./closed, 1% in HGC powder
[9] = 2 weeks 50° C./closed, 1% in HPMC powder
[10] = pH 6.8, 50 mM phosphate buffer with 50 mM Na taurocholate
[11] = After 1 day at 92% RH, TGA temperature per cell: free form @233° C., succinate @205° C., L-malate @200° C., L-lactate @200° C.
[12] = Hygroscopicity, As is, TGA temperature per cell: free form @233° C., succinate @205° C., L-malate @200° C., L-lactate @200° C.

In the case of CNC[C@]1(c2ccccc2)Oc2cc(F)c(Cl)c(-c3c(C(N)=O)ccc(OC)c3F)c2[C@@H]1C [Compound B Succinate salt, 2-((2S,3S,4S)-5-Chloro-6-fluoro-3-methyl-2-((methylamino)methyl)-2-phenyl-2,3-dihydrobenzofuran-4-yl)-3-fluoro-4-methoxybenzamide], the “Bulk amber vial (XRPD)” value ([1]; amber vial) is reported as “No change”, the CL color ([1]; amber vial) is reported as “A” and the “DP[%] degradation products, Bulk amber vial (HPLC)” value ([1]; amber vial) is reported as 0.13%. The “Bulk clear quartz vial (XRPD)” value ([1]; clear quartz vial) was “No change”, the CL color ([1]; clear quartz vial) was “B” and the “DP[%] degradation products, Bulk clear quartz vial (HPLC)” value ([1]; clear quartz vial) was 2.38%. For the same molecule, the CL color [2, 6] was “A”, the “DP[%] degradation products” value [2, 6] was 0.25% and the CL color [2, 7] was “A”. For the same molecule, the “DP[%] degradation products” value [2, 7] was 0.99%, the CL color [2, 8] was “A” and the “DP[%] degradation products” value [2, 8] was 0.15%. For the same molecule, the CL color [2, 9] was “A”, the “DP[%] degradation products” value [2, 9] was 0.17% and the “final pH” value ([3]; Blank FaSSIF) was “[6.06]”. The “Sol. (solubility)” value ([3]; Blank FaSSIF, target concentration 2 mg/mL) was over 2000 µg/mL, the “final pH” value ([3]; FaSSIF V2 pH 6.5) was “[6.06]” and the “Sol. (solubility)” value ([3]; FaSSIF V2 pH 6.5, target concentration 2 mg/mL) was over 2000 µg/mL. For the same molecule, the “final pH” value ([3]; FeSSIF V2 pH 5.8) was “[5.72]”, the “Sol. (solubility)” value ([3]; FeSSIF V2 pH 5.8, target concentration 2 mg/mL) was over 2000 µg/mL and the “final pH” value ([3]; SGF pH 2.0) was “[2.20]”. The “Sol. (solubility)” value ([3]; SGF pH 2.0, target concentration 2 mg/mL) was over 2000 µg/mL, the “final pH” value ([3]; Water) was “[4.97]” and the “Sol. (solubility)” value ([3]; Water, target concentration 2 mg/mL) was over 2000 µg/mL. For the same molecule, the “final pH” value ([3]; pH 1.2, 100 mM HCl) was “[1.17]”, the “Sol. (solubility)” value ([3]; pH 1.2, 100 mM HCl, target concentration 2 mg/mL) was over 2000 µg/mL and the “final pH” value ([3]; pH 3.0, 50 mM citrate buffer) was “[3.09]”. For the same molecule, the “Sol. (solubility)” value ([3]; pH 3.0, 50 mM citrate buffer, target concentration 2 mg/mL) was over 2000 µg/mL, the “final pH” value ([3]; pH 4.7, 50 mM acetate buffer) was “[4.70]” and the “Sol. (solubility)” value ([3]; pH 4.7, 50 mM acetate buffer, target concentration 2 mg/mL) was over 2000 µg/mL. The “final pH” value ([3]; pH 6.8, 50 mM phosphate buffer) was “[6.64]”, the “final pH” value [3, 10] was “[6.43]” and the “Sol. (solubility)” value ([3]; pH 6.8, 50 mM phosphate buffer with 50 mM Na taurocholate, target concentration 2 mg/mL) was over 2000 µg/mL. The “Sol. (solubility)” value ([3]; pH 6.8, 50 mM phosphate buffer, target concentration 2 mg/mL) was over 2000 µg/mL, the “Bulk (XRPD)” value ([4]; 2 weeks 50° C./75% RH) was “No change” and the CL color ([4]; 2 weeks 50° C./75% RH) was “A”. The “DP[%] degradation products, Bulk (HPLC)” value ([4]; 2 weeks 50° C./75% RH) was 0.09%, the “Bulk (XRPD)” value ([4]; 2 weeks 80° C./11% RH) was “No change” and the CL color ([4]; 2 weeks 80° C./11% RH) was “A”. For the same molecule, the “DP[%] degradation products, Bulk (HPLC)” value ([4]; 2 weeks 80° C./11% RH) was 0.08%, the “Bulk (XRPD)” value ([4]; 2 weeks 80° C./75% RH) was “No change” and the CL color ([4]; 2 weeks 80° C./75% RH) was “A”. The “DP[%] degradation products, Bulk (HPLC)” value ([4]; 2 weeks 80° C./75% RH) was 0.17%, the “Loss on drying by TGA” value [5, 11] was 0.67%@205 °C and the “Loss on drying by TGA” value [5, 12] was 0.56%@205 °C.
For CNC[C@]1(c2ccccc2)Oc2cc(F)c(Cl)c(-c3c(C(N)=O)ccc(OC)c3F)c2[C@@H]1C [Compound B L-lactate salt, 2-((2S,3S,4S)-5-Chloro-6-fluoro-3-methyl-2-((methylamino)methyl)-2-phenyl-2,3-dihydrobenzofuran-4-yl)-3-fluoro-4-methoxybenzamide], the “Bulk amber vial (XRPD)” value ([1]; amber vial) was “No change”, the CL color ([1]; amber vial) was “A” and the “DP[%] degradation products, Bulk amber vial (HPLC)” value ([1]; amber vial) was 0.17%. The “Bulk clear quartz vial (XRPD)” value ([1]; clear quartz vial) was “No change”, the CL color ([1]; clear quartz vial) was “B” and the “DP[%] degradation products, Bulk clear quartz vial (HPLC)” value ([1]; clear quartz vial) was 0.38%. For the same molecule, the CL color [2, 6] was “A”, the “DP[%] degradation products” value [2, 6] was 0.44% and the CL color [2, 7] was “A”. For the same molecule, the “DP[%] degradation products” value [2, 7] was 0.42%, the CL color [2, 8] was “A” and the “DP[%] degradation products” value [2, 8] was 0.22%. The CL color [2, 9] was “A”, the “DP[%] degradation products” value [2, 9] was 0.33% and the “final pH” value ([3]; Blank FaSSIF) was “[6.53]”. For the same molecule, the “final pH” value ([3]; FaSSIF V2 pH 6.5) was “[6.48]”, the “final pH” value ([3]; FeSSIF V2 pH 5.8) was “[5.79]” and the “final pH” value ([3]; SGF pH 2.0) was “[2.24]”. The “final pH” value ([3]; Water) was “[7.03]”, the “final pH” value ([3]; pH 1.2, 100 mM HCl) was “[1.12]” and the “final pH” value ([3]; pH 3.0, 50 mM citrate buffer) was “[3.06]”. For the same molecule, the “final pH” value ([3]; pH 4.7, 50 mM acetate buffer) was “[4.70]”, the “final pH” value ([3]; pH 6.8, 50 mM phosphate buffer) was “[6.79]” and the “final pH” value [3, 10] was “[6.58]”. The “Bulk (XRPD)” value ([4]; 2 weeks 50° C./75% RH) was “No change”, the CL color ([4]; 2 weeks 50° C./75% RH) was “A” and the “DP[%] degradation products, Bulk (HPLC)” value ([4]; 2 weeks 50° C./75% RH) was 0.33%. The “Bulk (XRPD)” value ([4]; 2 weeks 80° C./11% RH) was “No change”, the CL color ([4]; 2 weeks 80° C./11% RH) was “A” and the “DP[%] degradation products, Bulk (HPLC)” value ([4]; 2 weeks 80° C./11% RH) was 0.31%. For the same molecule, the “Bulk (XRPD)” value ([4]; 2 weeks 80° C./75% RH) was “No change”, the CL color ([4]; 2 weeks 80° C./75% RH) was “A” and the “DP[%] degradation products, Bulk (HPLC)” value ([4]; 2 weeks 80° C./75% RH) was 2.11%. For the same molecule, the XRPD ([5]; After 1 day at 80% RH) was “No change”, the “Loss on drying by TGA” value ([5]; After 1 day at 80% RH, @200° C.) was 1.08%@200 °C and the XRPD ([5]; After 1 day at 92% RH) was “No change”. The “Loss on drying by TGA” value [5, 11] was 1.18%@200 °C and the “Loss on drying by TGA” value [5, 12] was 0.92%@200 °C.
